Test results: US12441754B2, “Galactoside inhibitor of galectins” (GALECTO BIOTECH AB, priority 2019, dated 2025)

What was measured:
Galectin-1 = Galectin-1 (Homo sapiens, UniProt P09382); assay: fluorescence anisotropy assay, compound as inhibitor of galectin / fluorescein tagged saccharide probe interaction; assay type: binding
Description: (§1) Anal. Biochem. 334: 36-47, (Sörme et al., 2004) and Monovalent interactions of Galectin-1 By Salomonsson, Emma; Larumbe, Amaia; Tejler, Johan; Tullberg, Erik; Rydberg, Hanna; Sundin, Anders; Khabut, Areej; Frejd, Torbjorn; Lobsanov, Yuri D.; Rini, James M.; et al, From Biochemistry (2010), 49(44), 9518-9532, (Salomonsson et al., 2010).

Galectin-3 = Galectin-3 (Homo sapiens, UniProt P17931); assay: as above; assay type: binding
Sequence of Galectin-3 (P17931 whole entry): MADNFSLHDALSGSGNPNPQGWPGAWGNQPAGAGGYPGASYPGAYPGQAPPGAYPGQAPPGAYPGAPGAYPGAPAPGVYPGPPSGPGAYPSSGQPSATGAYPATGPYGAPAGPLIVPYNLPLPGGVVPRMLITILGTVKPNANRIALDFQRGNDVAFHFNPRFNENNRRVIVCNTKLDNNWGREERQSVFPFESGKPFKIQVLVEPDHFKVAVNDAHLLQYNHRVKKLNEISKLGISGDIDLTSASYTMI
Description: as §1

Sequence of Galectin-1 (P09382 whole entry): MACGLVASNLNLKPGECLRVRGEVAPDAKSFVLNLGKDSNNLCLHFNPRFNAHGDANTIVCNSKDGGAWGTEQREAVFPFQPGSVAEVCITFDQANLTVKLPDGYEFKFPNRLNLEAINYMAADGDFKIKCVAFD

SMILES | Kd (Galectin-1) | Kd (Galectin-3)
N#Cc1cc(Cl)cc(S[C@H]2O[C@H](CO)[C@H](O)[C@H](n3cc(-c4nc(Cl)cs4)nn3)[C@H]2O)c1 [Example 51, 3-Chloro-5-cyanophenyl 3-[4-(4-chlorothiazol-2-yl)-1H-1,2,3-triazol-1-yl]-3-deoxy-1-thio-α-D-galactopyranoside] | 250 nM | 370 nM
Nc1nc(-c2cn([C@@H]3[C@@H](O)[C@@H](Sc4cc(Cl)cnc4-c4ncc[nH]4)O[C@H](CO)[C@@H]3O)nn2)cs1 [Example 74, 5-Chloro-2-(1H-imidazol-2-yl)pyridin-3-yl 3-[4-(2-aminothiazol-4-yl)-1H-1,2,3-triazol-1-yl]-3-deoxy-1-thio-α-D-galactopyranoside] | 360 nM | 11300 nM
CO[C@@H]1[C@@H](n2cc(-c3nccs3)nn2)[C@@H](O)[C@@H](CO)O[C@@H]1Sc1cc(Cl)cnc1C#N [Example 4, 5-Chloro-2-cyanopyridin-3-yl 3-deoxy-2-O-methyl-3-[4-(2-thiazolyl)-1H-1,2,3-triazol-1-yl]-1-thio-α-D-galactopyranoside] | 110 nM | 1200 nM
CO[C@@H]1[C@@H](n2cc(-c3csc(N)n3)nn2)[C@@H](O)[C@@H](CO)O[C@@H]1Sc1cc(Cl)cnc1-c1nccs1 [Example 29, 5-Chloro-2-(thiazol-2-yl)pyridin-3-yl 3-[4-(2-aminothiazol-4-yl)-1H-1,2,3-triazol-1-yl]-3-deoxy-2-O-methyl-1-thio-α-D-galactopyranoside] | 48 nM | 8700 nM
CO[C@@H]1[C@@H](n2cc(-c3nccs3)nn2)[C@@H](O)[C@@H](CO)O[C@@H]1Sc1cc(Cl)ccc1F [Example 68, 5-Chloro-2-fluorophenyl 3-deoxy-2-O-methyl-3-[4-(2-thiazolyl)-1H-1,2,3-triazol-1-yl]-1-thio-α-D-galactopyranoside] | 250 nM | 4400 nM
CO[C@@H]1[C@@H](n2cc(-c3nc(Cl)cs3)nn2)[C@@H](O)[C@@H](CO)O[C@@H]1Sc1cc(Br)cnc1C#N [Example 11, 5-Bromo-2-cyanopyridin-3-yl 3-[4-(4-chlorothiazol-2-yl)-1H-1,2,3-triazol-1-yl]-3-deoxy-2-O-methyl-1-thio-α-D-galactopyranoside] | 19 nM | 170 nM
CO[C@@H]1[C@@H](n2cc(-c3csc(N)n3)nn2)[C@@H](O)[C@@H](CO)O[C@@H]1Sc1cc(Cl)cnc1C1=CCNCC1 [Example 24, 5-Chloro-2-(1,2,3,6-tetrahydropyridin-4-yl)pyridin-3-yl 3-[4-(2-aminothiazol-4-yl)-1H-1,2,3-triazol-1-yl]-3-deoxy-2-O-methyl-1-thio-α-D-galactopyranoside] | 150 nM | 3300 nM
N#Cc1ncc(Cl)cc1S[C@H]1O[C@H](CO)[C@H](O)[C@H](n2cc(-c3csc(N)n3)nn2)[C@H]1OCc1cc(F)c(O)c(F)c1 [Example 25, 5-Chloro-2-cyanopyridin-3-yl 3-[4-(2-aminothiazol-4-yl)-1H-1,2,3-triazol-1-yl]-3-deoxy-2-O-(3,5-difluoro-4-hydroxybenzyl)-1-thio-α-D-galactopyranoside] | 24 nM | 740 nM
C#Cc1cncc(S[C@H]2O[C@H](CO)[C@H](O)[C@H](n3cc(-c4nc(Cl)cs4)nn3)[C@H]2OC)c1 [Example 37, 5-Ethynylpyridin-3-yl 3-[4-(4-chlorothiazol-2-yl)-1H-1,2,3-triazol-1-yl]-3-deoxy-2-O-methyl-1-thio-α-D-galactopyranoside] | 200 nM | 390 nM
N#Cc1ccc(Cl)cc1S[C@@H]1C[C@@H](n2cc(-c3nc(Cl)cs3)nn2)[C@@H](O)[C@@H](CO)O1 [Example 43, 5-Chloro-2-cyanophenyl 3-[4-(4-chlorothiazol-2-yl)-1H-1,2,3-triazol-1-yl]-2,3-dideoxy-1-thio-α-D-galactopyranoside] | 130 nM | 1200 nM
CCO[C@@H]1[C@@H](n2cc(-c3nccs3)nn2)[C@@H](O)[C@@H](CO)O[C@@H]1Sc1cc(Cl)cnc1C#N [Example 71, 5-Chloro-2-cyanopyridin-3-yl 3-deoxy-2-O-ethyl-3-[4-(2-thiazolyl)-1H-1,2,3-triazol-1-yl]-1-thio-α-D-galactopyranoside] | 120 nM | 3600 nM
CO[C@@H]1[C@@H](n2cc(-c3csc(N)n3)nn2)[C@@H](O)[C@@H](CO)O[C@@H]1Sc1cc(Cl)cnc1C#N [Example 17, 5-Chloro-2-cyanopyridin-3-yl 3-[4-(2-aminothiazol-4-yl)-1H-1,2,3-triazol-1-yl]-3-deoxy-2-O-methyl-1-thio-α-D-galactopyranoside] | 33 nM | 1900 nM
CO[C@@H]1[C@@H](n2cc(-c3csc(N)n3)nn2)[C@@H](O)[C@@H](CO)O[C@@H]1Sc1cccc(Cl)c1 [Example 31, 3-Chlorophenyl 3-[4-(2-aminothiazol-4-yl)-1H-1,2,3-triazol-1-yl]-3-deoxy-2-O-methyl-1-thio-α-D-galactopyranoside] | 200 nM | 5600 nM
OC[C@H]1O[C@H](Sc2cncc(Cl)c2)[C@H](O)[C@@H](n2cc(-c3nc(Cl)cs3)nn2)[C@H]1O [Example 48, 5-Chloropyridin-3-yl 3-[4-(4-chlorothiazol-2-yl)-1H-1,2,3-triazol-1-yl]-3-deoxy-1-thio-α-D-galactopyranoside] | 150 nM | 420 nM
CO[C@@H]1[C@@H](n2cc(-c3nc(Cl)cs3)nn2)[C@@H](O)[C@@H](CO)O[C@@H]1Sc1cncc(Cl)c1 [Example 53, 5-Chloropyridin-3-yl 3-[4-(4-chlorothiazol-2-yl)-1H-1,2,3-triazol-1-yl]-3-deoxy-2-O-methyl-1-thio-α-D-galactopyranoside] | 54 nM | 340 nM
CO[C@@H]1[C@@H](n2cc(-c3csc(N)n3)nn2)[C@@H](O)[C@@H](CO)O[C@@H]1Sc1cc(Cl)cnc1-c1cccnc1 [Example 23, 5-Chloro-2-(pyridin-3-yl)pyridin-3-yl 3-[4-(2-aminothiazol-4-yl)-1H-1,2,3-triazol-1-yl]-3-deoxy-2-O-methyl-1-thio-α-D-galactopyranoside] | 30 nM | 4200 nM
C#Cc1cncc(S[C@H]2O[C@H](CO)[C@H](O)[C@H](n3cc(-c4nccs4)nn3)[C@H]2OC)c1 [Example 47, 5-Ethynylpyridin-3-yl 3-deoxy-2-O-methyl-3-[4-(2-thiazolyl)-1H-1,2,3-triazol-1-yl]-1-thio-α-D-galactopyranoside] | 570 nM | 3200 nM

Continued, values first:

Kd (Galectin-1) | Kd (Galectin-3) | SMILES
90 nM | 190 nM | CO[C@@H]1[C@@H](n2cc(-c3nc(Cl)cs3)nn2)[C@@H](O)[C@@H](CO)O[C@@H]1Sc1cncc(Br)c1 [Example 54, 5-Bromopyridin-3-yl 3-[4-(4-chlorothiazol-2-yl)-1H-1,2,3-triazol-1-yl]-3-deoxy-2-O-methyl-1-thio-α-D-galactopyranoside]
35 nM | 2530 nM | CO[C@@H]1[C@@H](n2cc(-c3nc(C)cs3)nn2)[C@@H](O)[C@@H](CO)O[C@@H]1Sc1cc(Cl)cnc1-c1ccccn1 [Example 46, 5-Chloro-2-(pyridin-2-yl)pyridin-3-yl 3-deoxy-3-[4-(4-methylthiazol-2-yl)-1H-1,2,3-triazol-1-yl]-2-O-methyl-1-thio-α-D-galactopyranoside]
120 nM | 5400 nM | CO[C@@H]1[C@@H](n2cc(-c3csc(N)n3)nn2)[C@@H](O)[C@@H](CO)O[C@@H]1Sc1cc(Cl)cnc1C [Example 18, 5-Chloro-2-methylpyridin-3-yl 3-[4-(2-aminothiazol-4-yl)-1H-1,2,3-triazol-1-yl]-3-deoxy-2-O-methyl-1-thio-α-D-galactopyranoside]
22 nM | 74 nM | COC1C(n2cc(-c3nc(Cl)cs3)nn2)[C@@H](O)C(CO)O[C@@H]1Sc1cc(Cl)cnc1C(=O)N1CCC1 (stereo partly drawn) [Example 45, 5-Chloro-2-(N-azetidinylcarbamoyl)-3-pyridinyl 3-[4-(4-chlorothiazol-2-yl)-1H-1,2,3-triazol-1-yl]-3-deoxy-2-O-methyl-1-thio-α-D-galactopyranoside]
12 nM | 74 nM | CCNC(=O)c1ncc(Cl)cc1S[C@H]1O[C@H](CO)[C@H](O)[C@H](n2cc(-c3nc(Cl)cs3)nn2)[C@H]1OC [Example 94, 5-Chloro-2-(N-ethylcarbamoyl)pyridin-3-yl 3-[4-(4-chlorothiazol-2-yl)-1H-1,2,3-triazol-1-yl]-3-deoxy-2-O-methyl-1-thio-α-D-galactopyranoside]
190 nM | 6600 nM | C#Cc1cncc(S[C@H]2O[C@H](CO)[C@H](O)[C@H](n3cc(-c4csc(N)n4)nn3)[C@H]2OC)c1 [Example 81, 5-Ethynylpyridin-3-yl 3-[4-(2-aminothiazol-4-yl)-1H-1,2,3-triazol-1-yl]-3-deoxy-2-O-methyl-1-thio-α-D-galactopyranoside]
8.5 nM | 44 nM | CCO[C@@H]1[C@@H](n2cc(-c3nc(Cl)cs3)nn2)[C@@H](O)[C@@H](CO)O[C@@H]1Sc1cc(Br)cnc1C(=O)N(C)C [Example 90, 5-Bromo-2-(N,N-dimethylcarbamoyl)pyridin-3-yl 3-[4-(4-chlorothiazol-2-yl)-1H-1,2,3-triazol-1-yl]-3-deoxy-2-O-ethyl-1-thio-α-D-galactopyranoside]
330 nM | 1000 nM | CO[C@@H]1[C@@H](n2cc(-c3nc(Cl)cs3)nn2)[C@@H](O)[C@@H](CO)O[C@@H]1Sc1cncc(SC(F)(F)F)c1 [Example 103, 5-(Trifluoromethylsulfanyl)pyridin-3-yl 3-[4-(4-chlorothiazol-2-yl)-1H-1,2,3-triazol-1-yl]-3-deoxy-2-O-methyl-1-thio-α-D-galactopyranoside]
82 nM | 5300 nM | OC[C@H]1O[C@H](Sc2ccc(Cl)c(Cl)c2)C[C@@H](n2cc(-c3csc(O)n3)nn2)[C@H]1O [Example 10, 3,4-Dichlorophenyl 2,3-dideoxy-3-[4-(2-hydroxythiazol-4-yl)-1H-1,2,3-triazol-1-yl]-1-thio-α-D-galactopyranoside]
